Data: patent US8999389B2, “Bioresorbable controlled-release composition” (priority 2006, dated 2015)

Test: Intravenous bolus dosing of 2-hydroxyflutamide in dogs, plasma concentration
Type: in vivo, Labrador dogs
Conditions: single intravenous bolus 25 mg
Protocol: First, an animal study was performed with 4 sexually mature Labrador dogs, aged 1 year, under approval by the Animal Ethics Committee of University of Gothenburg.
The male dogs (Labrador) were first given an intravenous single bolus dose of 2-hydroxyflutamide or 25 mg (10 ml solution) per animal during 30 seconds. The composition of the intravenous solution was sterile saline 54%, sterile polyethyleneglycol 400, 46% and 6% ethanol (95%).
After injection into vena jugularis, blood samples were taken at predetermined time points during 10 hours.

CC(C)(O)C(=O)Nc1ccc([N+](=O)[O-])c(C(F)(F)F)c1 [2-hydroxyflutamide]
time after which plasma concentration was below the detection limit: about 10 hrs
